Where “and” joins values, the source holds several entries; their conditions need not be identical. Equal entries are not always repeated.
Experiments:
[1] = target: T1, PD-L2 (Homo sapiens, UniProt Q9BQ51); assay: Rescue of IFN-γ release inhibited by PD-L2, human PBMC; format: cell-based; conditions: for IFNγ Rescue (%): inhibited by PD-L2; for IFNγ Rescue (%) / IFN-γ: replicates; for IFN-γ: human PBMCs + anti-CD3/anti-CD28 + PD-L2 10 nM
T1 construct: purchased R&D systems 1224-PL-100
Protocol: The ability of peptides, peptidomimetics, and small molecules were analyzed for their ability to rescue T-cell proliferation or IFN-γ release from the inhibitory activity of PD-L1 or PD-L2 in a splenocyte/PBMC-based functional assay as per the protocols reported in publication. […] For all in vitro assays, test agent stock was prepared in water and diluted further in the assay media to achieve test concentrations. Each experimental condition was carried out in triplicates. Percent rescue for a given test compound concentration was calculated by normalizing individual percent test agent proliferation or IFN-γ release values to percent anti-CD3 and anti-CD28 antibodies stimulated proliferation or IFN-γ release. EC50 values were derived by plotting transformed data into non-linear fit in sigmoidal dose–response curve using GraphPad Prism software (Version 7).

[2] = tested on: B7.1-CD28 co-stimulatory pathway; assay: CD28-B7.1 functional assay (IL-2, Jurkat T cells); format: cell-based, human; conditions: for IL2: Jurkat + PHA 5 µg/mL + B7.1 1 µg/mL, replicates
Protocol: Impact of CA-170 on immunostimulatory interaction was examined in a Jurkat T-cell-based assay in which the ability of B7-1 to induce production of IL-2 was monitored upon stimulation with PHA. Briefly, Jurkat T cells (0.25 × 10^5 cells/well of a 96-well plate) grown and starved in serum-free RPMI1640 media for 2 h were stimulated with PHA (5 µg/mL) and B7.1 (1.0 µg/mL) and different concentrations of CA-170 and cultured for 48 h at 37 °C. After indicated time of incubation, culture supernatant was analyzed for IL-2 by ELISA. Anti-CD28 antibody and isotypes were used as controls.

[3] = tested on: MC38 colon carcinoma; assay: Antitumor efficacy in MC38 syngeneic model (C57B6); format: in vivo, mouse; conditions: MC38 in C57B6 mice, day 14 of dosing
Protocol: For MC38 syngeneic colon carcinoma subcutaneous model, 0.5 × 10^6 MC38 cells (Source: NCI/NIH, kind gift from Dr. Michael Pollack) were injected subcutaneously to the left flank of the C57B6 mouse (In-house) or SCID Beige mice (Source: Harlan, France) on day 1 and dosing was initiated when average tumor volume reached ~100 mm^3. Animals were randomized based on tumor volumes and treated with either a vehicle control or CA-170 at indicated doses for 14 days. Anti-PD1 antibody (Clone J43 from BioXcel) was dosed intraperitoneally at 100 µg/animal once every week. Treatment efficacy was assessed in terms of the effects of the test substances on the tumor volumes of treated mice relative to vehicle-treated mice. Tumor growth curves of test and control groups using the mean tumor volumes were drawn, percent tumor growth inhibition (%TGI) […].

[4] = tested on: Adenosine A1, A2A, A3; assay: CEREP 80 panel binding: Adenosine; conditions: 10 µM
Protocol: (§1) CEREP 80 panel assay was carried out by Eurofins Cerep Panlabs facility at France. A series of binding assays was carried out to understand the off-target toxicity of CA-170. CA-170 was tested at 10 μM test concentration in duplicates. Compound binding was calculated as a % inhibition of the binding of a radioactively labeled ligand specific for each target. In each experiment the respective reference compound was tested concurrently with CA-170, and the data were compared with historical values determined at Eurofins. The experiment was accepted in accordance with Eurofins validation standard operating procedure. The results are expressed as a percent of control specific binding; (measured specific binding / control specific binding) × 100 and as a percent inhibition of control specific binding; 100−(measured specific binding / control specific binding) × 100 obtained in the presence of CA-170. The IC50 values (concentration causing a half-maximal inhibition of control specific binding) and Hill coefficients (nH) were determined by non-linear regression analysis of the competition curves generated with mean replicate values using Hill equation curve fitting.

[5] = tested on: Glutamate PCP; assay: CEREP 80 panel binding: Glutamate; conditions: 10 µM
Protocol: as §1

[6] = tested on: Dopamine D1, D2S, D3, D44, D5; assay: CEREP 80 panel binding: Dopamine; conditions: 10 µM
Protocol: as §1

[7] = tested on: Muscarinic M1, M2, M3, M4, M5; assay: CEREP 80 panel binding: Muscarinic; conditions: 10 µM
Protocol: as §1

[8] = tested on: Prostanoid EP4, IP, TP; assay: CEREP 80 panel binding: Prostanoid; conditions: 10 µM
Protocol: as §1

[9] = tested on: 5HT1A, 5HT1B, 5HT2A, 5HT2B, 5HT2C, 5HT3, 5HT5A, 5HT6, 5HT7; assay: CEREP 80 panel binding: Serotonin; conditions: 10 µM
Protocol: as §1

[10] = tested on: Angiotensin -II AT1, AT2; assay: CEREP 80 panel binding: Angiotensin-II; conditions: 10 µM
Protocol: as §1

[11] = tested on: Somatostatin sst; assay: CEREP 80 panel binding: Somatostatin; conditions: 10 µM
Protocol: as §1

[12] = target: T2, NeuropeptideY Y2 (Homo sapiens, UniProt P49146); assay: Y2 assay, determination of IC50 (CEREP follow-up); format: binding
T2 construct: Eurofins Cerep Panlabs (contract laboratory)
Protocol: as §1
Opioid & Opioid like DOP, KOP, MOP, NOP ≤9
Nuclear receptors GR, PPARγ ≤7
Ion Channels Ca2+, Kv, Skca, […] 1
Amine transporters DA, NE, 5HT ≤1
25% effect at the highest validated testing concentration.

[13] = tested on: NFAT reporter; design: method as in PMID 31374878; conditions: cited from earlier work
[14] = Phase 1, cited from earlier work
[15] = Plasma stability, human
Protocol: Test compounds were tested for plasma stability (test concentration of 10 μM) as per the protocols reported in publication[20].

T1 sequence (Q9BQ51 with tags, fused parts or gaps limits assumed): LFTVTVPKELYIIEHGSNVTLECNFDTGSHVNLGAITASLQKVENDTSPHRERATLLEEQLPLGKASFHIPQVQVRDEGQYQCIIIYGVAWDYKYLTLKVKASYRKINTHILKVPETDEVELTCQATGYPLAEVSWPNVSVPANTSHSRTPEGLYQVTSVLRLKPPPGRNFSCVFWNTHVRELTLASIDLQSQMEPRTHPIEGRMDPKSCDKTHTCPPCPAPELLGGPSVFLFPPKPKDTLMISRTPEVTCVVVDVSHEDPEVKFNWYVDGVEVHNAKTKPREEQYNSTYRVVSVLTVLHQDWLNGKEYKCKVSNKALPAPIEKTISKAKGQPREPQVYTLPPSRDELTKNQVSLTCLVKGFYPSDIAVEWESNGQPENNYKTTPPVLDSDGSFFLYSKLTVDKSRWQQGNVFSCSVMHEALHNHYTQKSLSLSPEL
T2 sequence (P49146 whole entry): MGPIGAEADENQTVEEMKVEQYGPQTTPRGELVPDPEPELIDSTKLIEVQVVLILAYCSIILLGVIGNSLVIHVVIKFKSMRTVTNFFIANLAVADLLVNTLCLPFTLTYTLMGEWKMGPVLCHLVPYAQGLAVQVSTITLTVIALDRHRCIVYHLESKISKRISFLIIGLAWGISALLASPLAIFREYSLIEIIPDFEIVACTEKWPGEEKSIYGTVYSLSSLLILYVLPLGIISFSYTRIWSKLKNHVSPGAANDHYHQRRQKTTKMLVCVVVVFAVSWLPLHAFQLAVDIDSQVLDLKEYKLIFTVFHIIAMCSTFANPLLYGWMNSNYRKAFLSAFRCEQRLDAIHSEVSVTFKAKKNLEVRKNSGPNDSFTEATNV

C[C@@H](O)[C@H](NC(=O)N[C@@H](CC(N)=O)c1nc([C@@H](N)CO)no1)C(=O)O [CA-170]
IFNγ Rescue (%) ([1]; 1.95 nM): -64.52% and -5.10% and -5.67% | IFNγ Rescue (%) ([1]; 3.91 nM): -3.89% and -4.90% and -5.25% | IFNγ Rescue (%) ([1]; 7.81 nM): -1.08% and -2.04% and -2.73% | IFNγ Rescue (%) ([1]; 15.63 nM): 4.10% and 2.24% and 2.52% | IFN-γ ([1]; 31.25 nM): 66.5 pg/mL and 74 pg/mL and 64 pg/mL | IFNγ Rescue (%) ([1]; 31.25 nM): 4.10% and 2.86% and 1.89% | IFNγ Rescue (%) ([1]; 62.50 nM): 39.96% and 36.33% and 35.71% | IFNγ Rescue (%) ([1]; 250.00 nM): 74.73% and 74.90% and 79.20% | IFN-γ ([1]; 500 nM): 869 pg/mL and 984 pg/mL and 1059 pg/mL | IFNγ Rescue (%) ([1]; 500.00 nM): 73.43% and 77.14% and 85.50% | rescue of IFNγ release inhibited by recombinant PD-L2 (in words) ([1]; human PBMCs stimulated with anti-CD3 and anti-CD28): rescued IFNγ release | EC50 ([1]; mean ± S.D., n=3): 80.9 nM | IL2 ([2]; 10 nM): 70.45 pg/mL and 63.796 pg/mL and 63.436 pg/mL | IL2 ([2]; 100 nM): 83.976 pg/mL and 80.412 pg/mL and 77.892 pg/mL | IL2 ([2]; 1000 nM): 83.364 pg/mL and 84.022 pg/mL and 79.85 pg/mL | inhibition of B7-1-mediated IL-2 secretion (in words) ([2]; Jurkat cells stimulated with PHA + human B7-1): did not inhibit IL-2 secretion | Individual tumor volumes ([3]; CA-170 10 mg/kg PO daily, J43 100 µg/animal/week, 10 mg/kg): 391.77 mm3 and 388.53 mm3 and 554.94 mm3 and 536.22 mm3 and 252.8 mm3 and 593.87 mm3 and 294.73 mm3 and 377.95 mm3 and 460.46 mm3 and 205.38 mm3 | tumor growth inhibition ([3]; CA-170 10 mg/kg/day orally, PD-1 antibody 100 µg/animal/week): 43% | % Inhibition of Control Specific Binding [4]: ≤ 26% | % Inhibition of Control Specific Binding [5]: 5% | % Inhibition of Control Specific Binding [6]: ≤ 14% | % Inhibition of Control Specific Binding [7]: ≤ 12% | % Inhibition of Control Specific Binding [8]: ≤ 5% | % Inhibition of Control Specific Binding [9]: ≤ 20% | % Inhibition of Control Specific Binding [10]: ≤ 5% | % Inhibition of Control Specific Binding [11]: 1% | EC50 value (Y2 assay taken for determination of IC50) ([12]; Y2): not calculable | effect at the highest validated testing concentration ([12]; Y2 concentration-response curve): less than 25% | activity in NFAT-reporter-based assay (in words) [13]: no activity | peripheral T-cell activation (in words) ([14]; circulating CD8+ and CD4+ T cells expressing CD69, Granzyme B, OX-40): Evidence of peripheral T-cell activation | T1/2 ([14]; oral 50 to 1200 mg): 4 to 9.5 h | safety profile (in words) ([14]; oral 50 to 1200 mg): acceptable safety profile | remaining at 4 h, 10 μM [15]: > 95%

Reference: paper PMC8187357 (Communications Biology, 2021)
